According to patent US10196359B2, “2-alkyloxy benzene formyl arylamine compound and pharmaceutical use thereof” (FUDAN UNIVERSITY, priority 2014, dated 2019):

Target: T1, Sphingomyelin Synthase 2 (SMS2) (Homo sapiens, UniProt Q8NHU3)
T1 construct: made in house; used as homogenate
T1 sequence (Q8NHU3 1-365): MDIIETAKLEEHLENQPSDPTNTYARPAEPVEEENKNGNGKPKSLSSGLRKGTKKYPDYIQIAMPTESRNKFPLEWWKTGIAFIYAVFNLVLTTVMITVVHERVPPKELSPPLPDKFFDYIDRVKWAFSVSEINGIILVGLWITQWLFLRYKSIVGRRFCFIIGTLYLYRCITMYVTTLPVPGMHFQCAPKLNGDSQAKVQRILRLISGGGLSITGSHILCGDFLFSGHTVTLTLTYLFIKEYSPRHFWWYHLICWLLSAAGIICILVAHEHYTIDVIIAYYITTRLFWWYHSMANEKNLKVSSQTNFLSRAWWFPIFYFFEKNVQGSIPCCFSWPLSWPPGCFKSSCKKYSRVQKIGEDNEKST
Experiment: In vitro inhibition of sphingomyelin synthase 2, HPLC fluorogenic quantitative detecting method (C6-NBD-ceramide to C6-NBD-SM, SMS2 high-expressed insect cell homogenate)
Format: biochemical
Conditions: for IC50: five concentrations, three parallel groups, experimental value, read-out: SMS2 Median Inhibitory Concentration IC50
From the text: The second aim of the present invention is to show the use of 2-alkoxy benzene formyl arylamines in preparing SMS small-molecule inhibitors. This invention evaluate SMS inhibitory activity of 2-alkoxy benzene formyl arylamines as scheme I through HPLC fluorogenic quantitative detecting method reported (Xiaodong Deng; Hong Sun; et al. Analytical Letters, 2012, 45:12, 1581-1589), which can make it possible to calculate the catalytic activity difference of SMS treated with inhibitors or not through content changes of NBD-ceramide and NBD-sphingomyelin.
9. The organic solvents were purchased from Shanghai Sinopharm Reagent Company; methanol is of HPLC grade; water is ultrapure water filtrated by Milli-Q pump and deionized and ultrafiltrated by 0.22 μm ultrafiltration membrane. Other biological supplies are purchased in domestic companies. 10. Preparation of SMS homogenate extraction buffer (Buffer1): (50 mM Tris hydrochloride, pH 7.4, 5% anhydrous sucrose, 1 mM ethylenediaminetetraacetic acid) 1.2114 g tris(hydroxymethyl)aminomethane hydrochloride (Tris-HCl) was dissolved in 100 ml distilled water. Then 84 ml 0.1 mol/L hydrochloric acid was added. Constant volume to 200 ml. Finally, 10 g sucrose and 58.45 mg EDTA were dissolved in the mixture. 11. Preparation of SMS test buffer […]: (100 mM Hepes, 30 mM MnCl2, 3% fatty acid free BSA): 1.1916 g 4-(2-hydroxyethyl)-1-peperazineethanesulfonic acid (Hepes), 0.2969 g MnCl2.4H2O and 0.3 g fatty acid free bovine serum albumin were dissolved in distilled water then constant volume to 50 ml. 12. Preparation of under tested compound solution: To each accurate weighed compound for 1˜2 mg, an appropriate amount of DMSO was added to formulate a stock solution of 6 mM precisely. To a certain volume of the DMSO stock solution of the test compound, the appropriate volume of DMSO was added to dilute the solution to the desired concentration. 13. SMS2 high-expressed insect cell homogenate was prepared by Xu Yanhui group from Institutes of Biomedical Sciences, Fudan University. Part 1 Activity Assay for Inhibition of 2-Alkoxy-Benzoyl Aromatic Amines to Sphingomyelin Synthase 2
250 μL tri-distilled water, 30 μL Buffer2, 4 μL SMS2 high-expressed insect cell homogenate (total protein content is 0.5 μg/μL) and 10 μL DMSO or DMSO solution of under tested compound were added to 1.5 mL eppendorf tube, vortex mixed for 30 seconds and then incubated in a 37° C. water bath for 0.5 h. 3 μL ethanol solution of DMPC (40 mM) and 3 μL ethanol solution of C6-NBD-Ceramide (1.16 mM) were added, vortex mixed for 30 seconds, and then incubate in a 37° C. water bath for 2.0 hours. To it 600 μL anhydrous ethanol was added vortex mixed for 1 minute and centrifuged 10 minutes in 10000 rpm and 600 μL supernatant was taken out and stored at 4° C. for HPLC analysis.
Using the same HPLC fluorogenic quantitative detecting method as reference (Xiaodong Deng; Hong Sun; et al. Analytical Letters, 2012, 45:12, 1581-1589) to analysize samples obtained above. Analysize and record peak areas of C6-NBD-SM (Asm) and C6-NBD-Ceramide (Acer) of each sample from blank group, positive control group (compound D2) and under tested compound group. The data were parallelly determined for 3 times. Calculate inhibition rate from the formula below: […]
The DMSO stock solution of under tested compound (6 mM) was diluted stepwise into five concentration gradient. 10 μL solution of each concentration was added into the trial system to prepare samples with the method mentioned in the first step of application case 12. The Asm values of the five concentration solution of tested compound were measured, and the inhibition rate under the five concentration were calculated and fitted to obtain median inhibitory concentration (IC50). Each compound was measured three parallel groups. SMS2 median inhibitory concentration of Scheme I-1˜I-60 are listed below in Table 1: […]

[1] = at 10 μM, read-out: inhibition rate

CCCCCCOc1ccccc1COc1ccccc1C(=O)Nc1cccnc1 [Scheme I-37, 2-((2-hexyloxy)benzyloxy)-N-(pyridin-3-yl) benzamide]
inhibition rate (at 10 μM): 90.2% | IC50: 0.7 µM

CCCCCCCOc1ccccc1COc1ccccc1C(=O)Nc1cccnc1 [Scheme I-38, 2-((2-heptyloxy)benzyloxy)-N-(pyridin-3-yl) benzamide]
inhibition at 10 µM [1]: 90.5% | IC50: 0.5 µM

O=C(Nc1cccnc1)c1ccccc1OCc1cccc(C(F)(F)F)c1 [Scheme I-41, 2-((3-trifluoromethyl)benzyloxy)-N-(pyridin-3-yl) benzamide]
inhibition at 10 µM [1]: 10% | IC50: > 100 µM

O=C(Nc1cccnc1)c1ccccc1OCc1ccccc1C(F)(F)F [Scheme I-42, 2-((2-trifluoromethyl)benzyloxy)-N-(pyridin-3-yl) benzamide]
inhibition rate (at 5 μM): 65.5% | IC50: 2.1 µM

Cc1ccc(Cl)cc1COc1ccccc1C(=O)Nc1cccnc1 [Scheme I-43, 2-((5-chloro-2-methyl)benzyloxy)-N-(pyridin-3-yl) benzamide]
inhibition rate (at 5 μM): 74.8% | IC50: 1.1 µM

Cc1c(Cl)cccc1COc1ccccc1C(=O)Nc1cccnc1 [Scheme I-44, 2-((3-chloro-2-methyl)benzyloxy)-N-(pyridin-3-yl) benzamide]
inhibition rate (at 5 μM): 47.0% | IC50: 3.8 µM

O=C(O)c1ccc(COc2ccccc2C(=O)Nc2cccnc2)cc1 [Scheme I-46, 4-((2-(pyridin-3-ylcarbamoyl)phenoxy)methyl) benzoic acid]
inhibition at 10 µM [1]: 2.6% | IC50: > 100 µM

O=C(O)COc1ccccc1COc1ccccc1C(=O)Nc1cccnc1 [Scheme I-47, 2-(2-((2-(pyridin-3-ylcarbamoyl)phenoxy)methyl)phenoxy) acetic acid]
inhibition at 10 µM [1]: 7.4% | IC50: > 100 µM

O=C(O)COc1cccc(COc2ccccc2C(=O)Nc2cccnc2)c1 [Scheme I-48, 2-(3-((2-(pyridin-3-ylcarbamoyl)phenoxy)methyl)phenoxy) acetic acid]
inhibition at 10 µM [1]: 3% | IC50: > 100 µM

COCCCOc1ccc(Cl)cc1COc1ccccc1C(=O)Nc1cccnc1 [Scheme I-49, 2-((5-chloro-2-(3-methoxy-propoxy))benzyloxy)-N-(pyridin-3-yl) benzamide]
inhibition at 10 µM [1]: 75.3% | IC50: 4.1 µM

COCCOc1ccc(Cl)cc1COc1ccccc1C(=O)Nc1cccnc1 [Scheme I-50, 2-((5-chloro-2-(2-methoxyethoxy))benzyloxy)-N-(pyridin-3-yl) benzamide]
inhibition at 10 µM [1]: 54.2% | IC50: 11.6 µM

O=C(Nc1cccnc1)c1ccccc1OCc1cc(Cl)ccc1OCCN1CCOCC1 [Scheme I-51, 2-((5-chloro-2-(2-morpholino-ethoxy))benzyloxy)-N-(pyridin-3-yl) benzamide]
inhibition at 10 µM [1]: 24.9% | IC50: > 50 µM

O=C(Nc1ccccn1)c1ccccc1OCc1ccccc1 [Scheme I-52, 2-benzyloxy-N-(pyridin-2-yl) benzamide]
inhibition at 100 µM (at 100 μM, read-out: inhibition rate): 60.1% | IC50: 11.7 µM

O=C(Nc1cccnc1)c1cc(Cl)ccc1OCc1c(Cl)cccc1Cl [Scheme I-54, 5-chloro-2-((2,6-dichlorophenyl)benzyloxy)-N-(pyridin-3-yl) benzamide]
inhibition at 10 µM [1]: 42.3% | IC50: > 25 µM

O=C(Nc1cccnc1)c1cc(Cl)ccc1OCc1cc(F)ccc1Cl [Scheme I-55, 5-chloro-2-((2-chloro-5-fluoro)benzyloxy)-N-(pyridin-3-yl) benzamide]
inhibition at 10 µM [1]: 31.7% | IC50: > 25 µM

O=C(Nc1cccnc1)c1ccc(Cl)cc1OCc1ccccc1Cl [Scheme I-56, 4-Chloro-2-(2-chloro-benzyloxy)-N-(pyridin-3-yl) benzamide]
inhibition at 10 µM [1]: 20% | IC50: > 50 µM

O=C(Nc1cccnc1)c1cc([N+](=O)[O-])ccc1OCc1ccccc1Cl [Scheme I-57, 2-(2-chloro-benzyloxy)-5-nitro-N-(pyridin-3-yl) benzamide]
inhibition at 10 µM [1]: 1.7% | IC50: > 100 µM
